Measurements from PMC4527783 (PLoS ONE, 2015).

What was measured:
NOP receptor = settings: cited from earlier work
mouse vas deferens = settings: isolated mouse vas deferens; cited from earlier work
From the text: On comparing the data with a wider range of pharmacological assays carried in vitro or in vivo, noticeable discrepancies are only apparent for a number of synthetic peptides that are known as NOP partial agonists. Such divergences are likely explained by the variations in stimulus/response coupling efficiency that characterize different pharmacological preparations. In fact, in accordance with classical receptor theory, the effect of a partial agonist can range from none to an almost full response, depending on the extent of amplification that the sensitivity of the signaling pathway exerts on ... || Also the estimates of antagonist potency derived from BRET analysis were in substantial agreement with similar determinations made in a variety of different pharmacological studies. […] We found, however, that a 3-fold increase in ...

[1] = biological target: Human NOP Rluc-tagged fusion protein (N/OFQ peptide receptor fused to Renilla luciferase) (human) (UniProt P41146)
Chain of Human NOP Rluc-tagged fusion protein (N/OFQ peptide receptor fused to Renilla luciferase) (human) (P41146 whole entry, the tested form may be a part): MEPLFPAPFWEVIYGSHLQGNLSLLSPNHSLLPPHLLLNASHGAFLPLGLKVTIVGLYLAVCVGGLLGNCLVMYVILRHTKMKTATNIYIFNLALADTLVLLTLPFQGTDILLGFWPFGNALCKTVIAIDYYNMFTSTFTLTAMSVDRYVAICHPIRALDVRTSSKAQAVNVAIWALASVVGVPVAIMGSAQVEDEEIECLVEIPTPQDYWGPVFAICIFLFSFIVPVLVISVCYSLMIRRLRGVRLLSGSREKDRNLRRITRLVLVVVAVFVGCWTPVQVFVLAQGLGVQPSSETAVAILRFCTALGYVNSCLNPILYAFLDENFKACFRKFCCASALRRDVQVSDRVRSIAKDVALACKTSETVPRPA

| pA2, rightward shift of the concentration-response curve of N/OFQ for arrestin coupling (BRET, whole cells); value as the sentence prints it, differs from Table 3 (pA2 (-log10 M)) [1] | Compound | antagonist potency estimate (pKB), [^35S]GTPγS binding (NOP receptor) | reversibility of antagonist action on washing (mouse vas deferens) |
| --- | --- | --- | --- |
|  | Cc1cccc2c1CC[C@H](CN1CCC(c3c(Cl)cccc3Cl)CC1)C[C@@H]2O [SB-612111, (-)-cis-1-methyl-7-[[4-(2,6-dichlorophenyl)piperidin-1-yl]methyl]-6,7,8,9-tetrahy dro-5H-benzocyclohepten-5-ol] | 9.70 | remains unchanged even after 3 hours of repeated washing |
| 9.42 | UFP-101 (peptide) |  |  |
